Data on 13 compounds can be found in ChEMBL document CHEMBL1201862, “PubChem BioAssay data set” (2004).

Some test systems named below: A549; ACHN; CAKI-1; HL-60; IGROV-1; KM-20L2; NCI-H226; NCI-H23; NCI-H522; SF-539; SK-MEL-28; SK-OV-3; SR; U-251; DU-145; MCF7; MDA-MB-435; MDA-N; PC-3; T47D.
Common to all, as to assay: NCI tumour cell line growth inhibition, 48 h

Each structure is given as a SMILES string.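 48-hour exposure; five concentrations; linearly interpolated endpoints. The concentration for 50% growth inhibition is given as GI50.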 Activity calls are given as the source filed them. Cut-off read from the data, not from the text of the source: active = GI50 up to about 1.1 µM and inactive = higher. A value given as a limit tells only on which side of the number the result lay.

Turning to `C/C(=N\O)c1sc(-n2nc(-c3ccccc3)cc2-c2ccccc2)nc1C`, the GI50 in the assay on A549 is 14.2 µM (inactive); in the assay on ACHN, 11.9 µM (inactive); in the assay with CAKI-1, 13.1 µM (inactive); in the assay on HL-60, 14 µM (inactive); with IGROV-1, 12.2 µM (inactive); with KM-20L2 it was 11.5 µM (inactive). Besides, the GI50 in the assay with NCI-H226 was 12.3 µM (inactive); with NCI-H23, 8.15 µM (inactive); with NCI-H522 it was 12.1 µM (inactive); with SF-539, 12.2 µM (inactive); in the assay with SK-MEL-28, 12.9 µM (inactive); in the assay on SK-OV-3, > 10 µM (inactive). Moreover, the GI50 in the assay with SR is 15.3 µM (inactive); in the assay on U-251, 11.7 µM (inactive).
As for `COc1cc(CC(C(=O)O)C(=O)O)c(OC)cc1CC(C(=O)O)C(=O)O`, the GI50 in the assay on A549, in the assay with CAKI-1, with HL-60, with IGROV-1, with KM-20L2 and in the assay with NCI-H226 was > 100 µM (inactive) in each case. Also, the GI50 with NCI-H23, in the assay on NCI-H522, in the assay on SF-539, with SK-OV-3, in the assay on SR and in the assay on U-251 was > 100 µM (inactive) throughout.
Consider `COc1c2c(cc3nc4ccccc4nc13)CCC(C(C)(C)O)C2` (stereo not given), for which the GI50 in the assay with A549 is > 100 µM (inactive); in the assay with ACHN it was > 100 µM (inactive); in the assay on CAKI-1 it was > 100 µM (inactive); in the assay on HL-60 it was 26.4 µM (inactive); in the assay with IGROV-1, > 100 µM (inactive); in the assay on KM-20L2, > 100 µM (inactive). Further, the GI50 in the assay with NCI-H226 was > 100 µM (inactive); in the assay with NCI-H23 it was 56.8 µM (inactive); in the assay on NCI-H522 it was 31.8 µM (inactive); with SF-539 it was > 100 µM (inactive); in the assay on SK-MEL-28 it was > 100 µM (inactive); in the assay on SK-OV-3, > 100 µM (inactive). Moreover, the GI50 with SR is 73.6 µM (inactive); in the assay on U-251 it was > 100 µM (inactive).
On to `CCOC(=O)C(=O)Nc1ccc(Cl)c(C(F)(F)F)c1`, for which the GI50 in the assay on A549, in the assay with ACHN, in the assay with CAKI-1, with HL-60, with IGROV-1 and in the assay on KM-20L2 was > 100 µM (inactive) in each case. Moreover, the GI50 in the assay with NCI-H226, in the assay with NCI-H23, with NCI-H522, in the assay with SF-539, in the assay on SK-MEL-28 and in the assay on SK-OV-3 was > 100 µM (inactive) throughout. Also, the GI50 in the assay on SR and with U-251 was > 100 µM (inactive) throughout.
As for `O=C1C(O)=C(CN(CCCl)CCCl)C(=O)c2ccccc21`, the GI50 with A549 was 34.3 µM (inactive); with ACHN, 35.2 µM (inactive); in the assay with CAKI-1, 39.7 µM (inactive); in the assay with HL-60, 31 µM (inactive); in the assay on IGROV-1, 20.5 µM (inactive); in the assay on KM-20L2 it was 28.7 µM (inactive). In addition, the GI50 was 68.9 µM (inactive) with NCI-H23; 66.8 µM (inactive) in the assay with NCI-H522; 34 µM (inactive) with SF-539; > 100 µM (inactive) in the assay on SK-MEL-28; > 100 µM (inactive) with SK-OV-3; 35.6 µM (inactive) with SR. Moreover, in the assay on U-251, the GI50 was 64.3 µM (inactive).
In the case of `O=C1c2c(nc3ccccc3c2-c2ccccc2)CN1Nc1ccccc1`, the GI50 with A549 was > 100 µM (inactive); with CAKI-1, > 100 µM (inactive); in the assay on HL-60, 45.3 µM (inactive); in the assay with IGROV-1 it was > 100 µM (inactive); in the assay on KM-20L2 it was > 100 µM (inactive); in the assay with NCI-H226, > 100 µM (inactive). The GI50 in the assay on NCI-H522, in the assay with SK-OV-3 and with SR was > 100 µM (inactive) in each case.
As to `CCCCCCCCCc1cc(=O)c2ccc(O)cc2o1`, the GI50 was 37.6 µM (inactive) in the assay with A549; 42.2 µM (inactive) in the assay with ACHN; 4.66 µM (inactive) in the assay on CAKI-1; 11.6 µM (inactive) in the assay on HL-60; 41.2 µM (inactive) with IGROV-1; > 100 µM (inactive) with KM-20L2. The GI50 with NCI-H226 is 12.6 µM (inactive); with NCI-H23 it was 63.5 µM (inactive); in the assay on NCI-H522, 31.4 µM (inactive); in the assay on SF-539 it was 44.4 µM (inactive); in the assay on SK-MEL-28, > 100 µM (inactive); in the assay on SK-OV-3, 60.3 µM (inactive). In addition, the GI50 is 24.3 µM (inactive) in the assay with SR and 33.8 µM (inactive) with U-251.
Take `O=S(=O)(O)c1cc(/N=N/c2cc(S(=O)(=O)O)c3cccnc3c2O)ccc1/C=C/c1ccc(/N=N/c2cc(S(=O)(=O)O)c3cccnc3c2O)cc1S(=O)(=O)O`: the GI50 was > 100 µM (inactive) with A549; > 100 µM (inactive) in the assay on ACHN; > 100 µM (inactive) with CAKI-1; > 100 µM (inactive) in the assay on DU-145; 18.6 µM (inactive) with HL-60; > 100 µM (inactive) with IGROV-1. Also, the GI50 in the assay on KM-20L2 was > 66.5 µM (inactive); in the assay with MCF7 it was > 100 µM (inactive); in the assay on MDA-MB-435, > 100 µM (inactive); with MDA-N, > 100 µM (inactive); in the assay on NCI-H226, > 100 µM (inactive); in the assay on NCI-H23, > 100 µM (inactive). Moreover, the GI50 with NCI-H522 was > 100 µM (inactive); in the assay on PC-3, > 100 µM (inactive); with SF-539 it was > 100 µM (inactive); in the assay with SK-MEL-28, > 100 µM (inactive); in the assay on SK-OV-3, > 100 µM (inactive); in the assay with SR, 21.7 µM (inactive). Further, the GI50 in the assay on T47D and in the assay with U-251 was > 100 µM (inactive) each time.
For the compound `CC(C)N1C(C)[C@@H](c2ccccc2)O[P@@]1(=O)CC1=CCCCC1` (stereo not given in full), the GI50 with A549 was > 100 µM (inactive); with ACHN, > 100 µM (inactive); in the assay on HL-60 it was 24.1 µM (inactive); in the assay on IGROV-1 it was > 100 µM (inactive); with KM-20L2, > 100 µM (inactive); with NCI-H226, > 100 µM (inactive). Besides, the GI50 with NCI-H23 was > 100 µM (inactive); in the assay on NCI-H522, > 100 µM (inactive); in the assay on SF-539, > 100 µM (inactive); in the assay with SK-MEL-28, > 100 µM (inactive); in the assay with SK-OV-3 it was > 100 µM (inactive); in the assay on SR, 69.5 µM (inactive). In addition, in the assay on U-251, the GI50 was > 100 µM (inactive).
As for `C=C[C@]1(C)CCC2=C(CCC3C2(C)CCC[C@@]3(C)COC(C)=O)C1` (stereo not given in full), the GI50 with A549 was 22.8 µM (inactive); in the assay on ACHN, 17.5 µM (inactive); in the assay on CAKI-1 it was 20.5 µM (inactive); in the assay on HL-60 it was 19.7 µM (inactive); in the assay on IGROV-1 it was 20.7 µM (inactive); in the assay on KM-20L2, 17.5 µM (inactive). For the same compound, the GI50 is 18.2 µM (inactive) in the assay with NCI-H226; 22 µM (inactive) with NCI-H23; 15.4 µM (inactive) with NCI-H522; 20.9 µM (inactive) in the assay on SF-539; 33.1 µM (inactive) in the assay on SK-MEL-28; 18.5 µM (inactive) with SK-OV-3. Further, the GI50 with SR is 18.6 µM (inactive); in the assay with U-251, 17.8 µM (inactive).
With `COc1cc(C2c3cc4c(cc3[C@@H](OCCN(C)C)C3COC(=O)[C@H]23)OCO4)cc(OC)c1O` (stereo not given in full), the GI50 in the assay on A549 is 0.0655 µM (active); in the assay on ACHN it was 0.1 µM (active); with CAKI-1, 0.14 µM (active); with HL-60, 0.036 µM (active); with IGROV-1, 1.52 µM (inactive); in the assay on KM-20L2, 0.855 µM (active). Further, the GI50 in the assay with NCI-H226 is 0.0394 µM (active); in the assay with NCI-H23 it was 0.237 µM (active); in the assay with NCI-H522, 0.111 µM (active); with SF-539 it was 0.164 µM (active); with SK-MEL-28 it was 0.993 µM (active); in the assay on SK-OV-3 it was 0.163 µM (active). Also, the GI50 in the assay on SR was < 0.01 µM (active); in the assay on U-251 it was 0.0849 µM (active).
As for `COc1c(Cl)c2c(c(OC)c1OC)-c1ccc(OC)c(=O)c(Cl)c1C(NC(C)=O)CC2` (stereo not given), the GI50 in the assay on A549 was 0.225 µM (active); in the assay on ACHN, 0.668 µM (active); with CAKI-1 it was 0.608 µM (active); in the assay on HL-60, 0.169 µM (active); in the assay on IGROV-1, 0.466 µM (active); in the assay with KM-20L2 it was 0.12 µM (active). In addition, the GI50 in the assay with NCI-H226 was 0.316 µM (active); in the assay on NCI-H23, 0.269 µM (active); in the assay with NCI-H522 it was 0.148 µM (active); in the assay with SF-539, 0.148 µM (active); with SK-MEL-28, 0.288 µM (active); in the assay on SK-OV-3, 0.133 µM (active). The results for the GI50 in the assay with SR and with U-251 were 0.444 µM (active) and 0.235 µM (active), respectively.
For the compound `O=C1C2C3C=CC(C2C(=O)N1CN1CCOCC1)C1C2C(=O)N(CN4CCOCC4)C(=O)C2C31` (stereo not given), the GI50 is > 56 µM (inactive) in the assay with A549; > 53.3 µM (inactive) with ACHN; > 68.2 µM (inactive) in the assay with CAKI-1; > 100 µM (inactive) in the assay with DU-145; > 40.6 µM (inactive) with HL-60; > 56 µM (inactive) in the assay on IGROV-1. Further, the GI50 was 27.4 µM (inactive) in the assay with KM-20L2; > 100 µM (inactive) in the assay on MCF7; > 100 µM (inactive) with MDA-MB-435; > 100 µM (inactive) with MDA-N; > 47.3 µM (inactive) in the assay with NCI-H226; > 47.9 µM (inactive) with NCI-H23. Moreover, the GI50 with NCI-H522 is > 40 µM (inactive); in the assay on PC-3 it was > 100 µM (inactive); in the assay with SF-539, > 56.8 µM (inactive); in the assay with SK-MEL-28, > 48.6 µM (inactive); with SK-OV-3, > 71.4 µM (inactive); in the assay on SR, 30.8 µM (inactive). The results for the GI50 in the assay with T47D and in the assay on U-251 were > 100 µM (inactive) and > 45.3 µM (inactive), respectively.
